# Results taken from patent publication US20020049160A1, “New strategy for drug design” (priority 2000, published 2002).
# How the values were obtained:
# NMDA receptors = target: T1, NMDA receptors (Rattus norvegicus, UniProt P35439); assay: NMDA-evoked currents in isolated dorsal horn neurons of control rats, whole-cell patch clamp, with or without PKCM in the pipette; format: cell-based
# T1 construct: Single dorsal horn neurons were isolated from the lamina I and II of the lumbar spinal cord; endogenous in cells; host or cells: acutely dissociated rat lumbar dorsal horn neurons (lamina I/II): control Long-Evans rats or CFA-inflamed Sprague-Dawley rats
# Method: Single dorsal horn neurons were isolated from the lamina I and II of the lumbar spinal cord of 13-20 days old Long-Evans rats. After the rat had been anaesthetized with pentobarbitone (0.1 mg/g), the lumbar region of the spinal cord was rapidly removed from the animal and put into an ice-cold, oxygenated dissecting solution. […] Prior to an experiment, neurons from a slice were dissociated by triturating the tissue with a series of fire-polished Pasteur pipettes.
# Electrical recordings: NMDA-receptor mediated currents in normal dorsal horn neurons were examined using the whole-cell patch clamp recording technique at room temperature (20-23° C.). The pipette solution contained (in mM): 120 cesium methanesulphonate, 20 CsCl, 1 CaCl2, 5 BAPTA, 1 MgCl2, 10 HEPES, 2.5 Na2ATP, adjusted to pH 7.2 with CsOH. The external solution contained (mM): NaCl,140; KCl, 4; CaCI2, 2.5; MgCl2, 0.02; HEPES,10; Glucose,10; Sucrose,10; adjusted to pH 7.4 with KOH. […] The resistances of patch pipettes were <20 Mohms. Current recordings were made with an Axopatch-200A patch clamp amplifier (Axon Instruments, Foster City, Calif.). The recorded whole-cell currents were filtered at 2 kHz and sampled at 200 μs per point. The average data are expressed as mean±SEM. Statistical significance of the data was evaluated using Student's t-test or one-way ANOVA. A level of P<0.05 was considered statistically significant.
# [1] = system: N and P/Q subtypes of Ca^2+ channel; settings: cited from earlier work
# GABAA receptors = settings: cited from earlier work
# GABAB receptors = GABAB receptors (Homo sapiens, UniProt Q9UBS5); settings: cited from earlier work
# [2] = system: system L-amino acid transporter; settings: cited from earlier work
# [3] = system: formalin-induced nociceptive responses; settings: formalin test, cited from earlier work
# [4] = rodents; cited from earlier work
# [5] = rabbits; cited from earlier work
# Sequence of GABAB receptors (Q9UBS5 15-961 limits assumed): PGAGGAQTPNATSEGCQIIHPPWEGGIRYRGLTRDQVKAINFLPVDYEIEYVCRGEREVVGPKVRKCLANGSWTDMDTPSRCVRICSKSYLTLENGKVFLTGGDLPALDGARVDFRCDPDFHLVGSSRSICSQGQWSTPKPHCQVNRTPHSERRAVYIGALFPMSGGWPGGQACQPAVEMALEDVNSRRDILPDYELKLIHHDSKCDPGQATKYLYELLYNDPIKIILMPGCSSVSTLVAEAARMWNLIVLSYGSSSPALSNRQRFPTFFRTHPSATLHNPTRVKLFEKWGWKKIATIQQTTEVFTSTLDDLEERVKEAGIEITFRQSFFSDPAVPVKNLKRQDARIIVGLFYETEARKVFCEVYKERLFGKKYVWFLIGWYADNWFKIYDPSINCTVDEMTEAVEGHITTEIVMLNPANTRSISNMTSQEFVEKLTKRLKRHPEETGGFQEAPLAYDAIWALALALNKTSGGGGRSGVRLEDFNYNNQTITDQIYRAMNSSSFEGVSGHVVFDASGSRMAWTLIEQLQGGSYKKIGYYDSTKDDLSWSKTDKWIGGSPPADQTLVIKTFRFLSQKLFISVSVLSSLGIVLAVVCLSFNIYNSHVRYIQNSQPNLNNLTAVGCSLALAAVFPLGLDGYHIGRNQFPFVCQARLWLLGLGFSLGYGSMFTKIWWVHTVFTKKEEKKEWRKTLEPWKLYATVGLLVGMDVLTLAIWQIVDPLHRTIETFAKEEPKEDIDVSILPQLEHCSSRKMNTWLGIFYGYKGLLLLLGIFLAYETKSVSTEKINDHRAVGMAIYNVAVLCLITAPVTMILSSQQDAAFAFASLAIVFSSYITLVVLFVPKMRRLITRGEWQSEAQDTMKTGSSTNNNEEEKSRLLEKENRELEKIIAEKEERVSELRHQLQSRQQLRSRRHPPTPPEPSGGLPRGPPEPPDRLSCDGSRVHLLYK
# Sequence of GABAB receptors (O75899 42-941 partner): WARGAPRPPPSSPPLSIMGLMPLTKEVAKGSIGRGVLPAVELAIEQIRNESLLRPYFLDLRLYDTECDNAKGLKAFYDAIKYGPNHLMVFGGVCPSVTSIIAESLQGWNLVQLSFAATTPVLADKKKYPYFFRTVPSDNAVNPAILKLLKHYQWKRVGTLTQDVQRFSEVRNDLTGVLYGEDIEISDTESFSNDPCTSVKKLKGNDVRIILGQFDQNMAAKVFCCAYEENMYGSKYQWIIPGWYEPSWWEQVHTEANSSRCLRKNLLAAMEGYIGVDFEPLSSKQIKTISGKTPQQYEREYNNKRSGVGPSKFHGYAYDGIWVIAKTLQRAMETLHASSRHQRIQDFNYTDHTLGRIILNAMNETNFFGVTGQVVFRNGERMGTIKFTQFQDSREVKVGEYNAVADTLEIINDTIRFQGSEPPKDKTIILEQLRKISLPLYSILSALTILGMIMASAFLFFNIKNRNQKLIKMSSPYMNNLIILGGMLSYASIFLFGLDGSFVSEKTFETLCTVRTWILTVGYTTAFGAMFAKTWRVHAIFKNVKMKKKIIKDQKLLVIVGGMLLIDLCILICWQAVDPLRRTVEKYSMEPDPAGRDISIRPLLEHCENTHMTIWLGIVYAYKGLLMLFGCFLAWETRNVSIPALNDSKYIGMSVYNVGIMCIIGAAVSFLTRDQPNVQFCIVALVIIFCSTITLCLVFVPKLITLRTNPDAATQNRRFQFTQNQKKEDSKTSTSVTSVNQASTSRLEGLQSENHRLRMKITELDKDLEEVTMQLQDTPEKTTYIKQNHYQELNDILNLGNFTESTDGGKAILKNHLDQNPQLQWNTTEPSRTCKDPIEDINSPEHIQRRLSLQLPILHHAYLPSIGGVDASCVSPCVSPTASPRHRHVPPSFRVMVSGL
structure (smiles),measurement,setting,value
"NC(CCCP(=O)(O)O)C(=O)O (stereo not shown) [APV, 2-amino-5-phosphonovaleric acid]",block of NMDA-evoked inward current,"NMDA receptors; 20 μM APV, control dorsal horn neuron",blocked
"NCC1(CC(=O)O)CCCCC1 [GBP, 1-(aminomethyl)cyclohexaneacetic acid]",inhibition of Ca^2+ channel activity,[1],< 20%
same,interaction with GABAA receptors,GABAA receptors,does not interact
same,interaction with GABAB receptors,GABAB receptors,does not interact
same,interaction with system L-amino acid transporter,[2],interact
same,nociceptive behaviors in the transient phase,[3]; first phase,no effect
same,sustained phase of formalin-induced nociceptive responses,[3]; second phase,potently blocking
same,fetotoxicity,[4],fetotoxic
same,fetal loss,[5],postimplantation fetal loss
COc1ccc2c(c[n+](C)c3c4cc5c(cc4ccc23)OCO5)c1OC [chelerythrine],block of the action of PKCM on NMDA-activated currents,NMDA receptors; 6.6 μM chelerythrine in external solution,completely blocked
